Source: patent US9486506B2 (Novo Nordisk A/S, priority 2011, dated 2016)
Numbered stars: 1 amine (or outer) side, 2 acyl side, 3 side chain; on linkers, the order of the positions; unused ones are H or OH. Side chains are listed from the residue outwards. Peptide text beside a SMILES is read from it. * marks the point of attachment. C18 diacid = O=C(O)CCCCCCCCCCCCCCCCC(=O)*; γGlu = O=C(O)[C@H](CCC(=O)[*:2])N[*:1]; AEEA = NCCOCCOCC(=O)O

How the values were obtained:
[1] = Assay (X) Chemical stability assessment by RP-UPLC; type: physicochemical; conditions: pH 8.15, 14 days at 37° C. vs 5° C., 333 μM
Experimental: Chemical Stability Assessment
Lyophilized samples were dissolved in buffer (see below for detailed compositions) to a final concentration of 333 μM and a pH of 8.15, and were incubated for 14 days at 5° C. and 37° C. followed by RP-UPLC analysis. Purity was defined as the area percentage of the main peak in relation to the total area of all integrated peaks in each chromatogram. Purity loss after 14 days at 37° C. was determined as the difference in purity between the samples incubated at 5° C. and 37° C., divided by the purity of the sample after incubation for 14 days at 5° C.
RP-UPLC analysis was performed using a Waters BEH130 2.1 mm×150 mm, 1.7 μm column operated at 50° C. and a flow rate of 0.4 mL/min using a mobile phase system consisting of typically A: 50 mM Phosphate, 10 w/w % Acetonitrile pH 3 and B: 80 v/v Acetonitrile. UV-detection was performed at 215 nm. The typical gradient profile used for most of the samples is shown below.
For some individual analogues eluting at substantially different retention times compared with the majority of analogues, some adjustments to the gradient profile were made to better enable purity assessment comparison across samples. Also the composition of the channel B mobile phase component was in some of the analyses exchanged for a 90 v/v % Acetonitrile solvent solution in an attempt to better handle carry-over of material from one injection to the next in the sequence. This was however compensated for by recalculating the gradient profile appropriately.
Buffer: • 50 mM Dinatriumphosphatdihydrat • 184 mM Propylenglycol • 58 mM Phenol • pH adjusted to 8.15 with H3PO4. In cases where pH was adjusted to 8.15 after re-suspension of analogues, 0.2 M NaOH was used. Assay (XI) Pharmacokinetic Study in Minipigs

glucagon receptor = biological target: T1, glucagon receptor (Homo sapiens, UniProt P47871); assay: Assay (I) Glucagon activity (cAMP biosensor, FLIPR); type: cell-based
T1 construct: expressed in transfected cells
T1 sequence (P47871 26-477): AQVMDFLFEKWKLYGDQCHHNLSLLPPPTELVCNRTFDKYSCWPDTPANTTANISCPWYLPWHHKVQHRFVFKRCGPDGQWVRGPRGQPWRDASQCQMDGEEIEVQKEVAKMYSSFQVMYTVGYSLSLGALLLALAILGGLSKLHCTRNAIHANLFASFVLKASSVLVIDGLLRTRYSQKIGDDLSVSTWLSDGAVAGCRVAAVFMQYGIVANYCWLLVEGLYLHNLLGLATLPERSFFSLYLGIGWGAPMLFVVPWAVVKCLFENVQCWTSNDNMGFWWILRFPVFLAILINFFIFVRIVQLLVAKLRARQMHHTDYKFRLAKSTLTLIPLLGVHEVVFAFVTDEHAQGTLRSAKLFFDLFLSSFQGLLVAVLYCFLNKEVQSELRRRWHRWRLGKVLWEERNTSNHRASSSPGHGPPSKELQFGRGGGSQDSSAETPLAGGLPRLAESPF

SMILES | Chemical stability [Purity loss/14 days 37 C.] [1] [%] | EC50 (glucagon receptor) [nM]
CC(C)C[C@H](NC(=O)[C@H](Cc1c[nH]c2ccccc12)NC(=O)[C@H](CCCCNC(=O)CC[C@H](NC(=O)CC[C@H](NC(=O)COCCOCCNC(=O)COCCOCCNC(=O)CC[C@H](NC(=O)CCCCCCCCCCCCCCCCC(=O)O)C(=O)O)C(=O)O)C(=O)O)NC(=O)[C@@H](NC(=O)[C@H](Cc1ccccc1)NC(=O)[C@H](CC(=O)O)NC(=O)[C@H](CCC(N)=O)NC(=O)[C@H](C)NC(=O)[C@H](CCCNC(=N)N)NC(=O)[C@H](CCCNC(=N)N)NC(=O)[C@@H](NC(=O)[C@H](CC(=O)O)NC(=O)[C@H](CC(C)C)NC(=O)[C@H](Cc1ccc(O)cc1)NC(=O)[C@H](CCCNC(=N)N)NC(=O)[C@H](CO)NC(=O)[C@H](Cc1ccc(O)cc1)NC(=O)[C@H](CC(=O)O)NC(=O)[C@H](CO)NC(=O)[C@@H](NC(=O)[C@H](Cc1ccccc1)NC(=O)[C@@H](NC(=O)CNC(=O)[C@H](CCC(N)=O)NC(=O)[C@H](CO)NC(=O)[C@@H](N)Cc1c[nH]cn1)[C@@H](C)O)[C@@H](C)O)C(C)C)C(C)C)C(=O)N[C@@H](CC(C)C)C(=O)N[C@@H](CO)C(=O)N[C@H](C(=O)O)[C@@H](C)O [Example 21, N^ε24-[(4S)-4-carboxy-4-[[(4S)-4-carboxy-4-[[2-[2-[2-[[2-[2-[2-[[(4S)-4-carboxy-4-(17-carboxyheptadecanoylamino)butanoyl]amino]ethoxy]ethoxy]acetyl]amino]ethoxy]ethoxy]acetyl]amino]butanoyl]amino]butanoyl]-[Arg^12,Val^16,Lys^24,Leu^27,Ser^28]-Glucagon] (H-HSQGTFTSDYSRYLDVRRAQDFVK([γGlu-γGlu-AEEA-AEEA-γGlu-C18 diacid])WLLST-OH) | 2.9 | 1.32
CC(C)C[C@H](NC(=O)[C@H](Cc1c[nH]c2ccccc12)NC(=O)[C@H](CCCCNC(=O)CC[C@H](NC(=O)CC[C@H](NC(=O)COCCOCCNC(=O)COCCOCCNC(=O)CC[C@H](NC(=O)CCCCCCCCCCCCCCCCC(=O)O)C(=O)O)C(=O)O)C(=O)O)NC(=O)[C@@H](NC(=O)[C@H](Cc1ccccc1)NC(=O)[C@H](CC(=O)O)NC(=O)[C@H](CCC(N)=O)NC(=O)[C@H](C)NC(=O)[C@H](CCCNC(=N)N)NC(=O)[C@H](CCCNC(=N)N)NC(=O)[C@@H](NC(=O)[C@H](CC(=O)O)NC(=O)[C@H](CC(C)C)NC(=O)[C@H](Cc1ccc(O)cc1)NC(=O)[C@H](CCCNC(=N)N)NC(=O)[C@H](CO)NC(=O)[C@H](Cc1ccc(O)cc1)NC(=O)[C@H](CC(=O)O)NC(=O)[C@H](CO)NC(=O)[C@@H](NC(=O)[C@H](Cc1ccccc1)NC(=O)[C@@H](NC(=O)CNC(=O)[C@H](CCC(N)=O)NC(=O)[C@H](CO)NC(=O)[C@@H](N)Cc1c[nH]cn1)[C@@H](C)O)[C@@H](C)O)[C@@H](C)O)C(C)C)C(=O)N[C@@H](CC(C)C)C(=O)N[C@@H](CO)C(=O)N[C@H](C(=O)O)[C@@H](C)O [Example 22, N^ε24-[(4S)-4-carboxy-4-[[(4S)-4-carboxy-4-[[2-[2-[2-[[2-[2-[2-[[(4S)-4-carboxy-4-(17-carboxyheptadecanoylamino)butanoyl]amino]ethoxy]ethoxy]acetyl]amino]ethoxy]ethoxy]acetyl]amino]butanoyl]amino]butanoyl]-[Arg^12,Thr^16,Lys^24,Leu^27,Ser^28]-Glucagon] (H-HSQGTFTSDYSRYLDTRRAQDFVK([γGlu-γGlu-AEEA-AEEA-γGlu-C18 diacid])WLLST-OH) | 8.8 | 0.297
CC[C@H](C)[C@H](NC(=O)[C@H](CC(=O)O)NC(=O)[C@H](CC(C)C)NC(=O)[C@H](Cc1ccc(O)cc1)NC(=O)[C@H](CCCNC(=N)N)NC(=O)[C@H](CO)NC(=O)[C@H](Cc1ccc(O)cc1)NC(=O)[C@H](CC(=O)O)NC(=O)[C@H](CO)NC(=O)[C@@H](NC(=O)[C@H](Cc1ccccc1)NC(=O)[C@@H](NC(=O)CNC(=O)[C@H](CCC(N)=O)NC(=O)[C@H](CO)NC(=O)[C@@H](N)Cc1c[nH]cn1)[C@@H](C)O)[C@@H](C)O)C(=O)N[C@@H](CCCNC(=N)N)C(=O)N[C@@H](CCCNC(=N)N)C(=O)N[C@@H](C)C(=O)N[C@@H](CCC(N)=O)C(=O)N[C@@H](CC(=O)O)C(=O)N[C@@H](Cc1ccccc1)C(=O)N[C@H](C(=O)N[C@@H](CCCCNC(=O)CC[C@H](NC(=O)CC[C@H](NC(=O)COCCOCCNC(=O)COCCOCCNC(=O)CC[C@H](NC(=O)CCCCCCCCCCCCCCCCC(=O)O)C(=O)O)C(=O)O)C(=O)O)C(=O)N[C@@H](Cc1c[nH]c2ccccc12)C(=O)N[C@@H](CC(C)C)C(=O)N[C@@H](CC(C)C)C(=O)N[C@@H](CO)C(=O)N[C@H](C(=O)O)[C@@H](C)O)C(C)C [Example 23, N^ε24-[(4S)-4-carboxy-4-[[(4S)-4-carboxy-4-[[2-[2-[2-[[2-[2-[2-[[(4S)-4-carboxy-4-(17-carboxyheptadecanoylamino)butanoyl]amino]ethoxy]ethoxy]acetyl]amino]ethoxy]ethoxy]acetyl]amino]butanoyl]amino]butanoyl]-[Arg^12,Ile^16,Lys^24,Leu^27,Ser^28]-Glucagon] (H-HSQGTFTSDYSRYLDIRRAQDFVK([γGlu-γGlu-AEEA-AEEA-γGlu-C18 diacid])WLLST-OH) | 3.1 | 1.04
CC(C)C[C@H](NC(=O)[C@H](CC(=O)O)NC(=O)[C@H](CC(C)C)NC(=O)[C@H](Cc1ccc(O)cc1)NC(=O)[C@H](CCCNC(=N)N)NC(=O)[C@H](CO)NC(=O)[C@H](Cc1ccc(O)cc1)NC(=O)[C@H](CC(=O)O)NC(=O)[C@H](CO)NC(=O)[C@@H](NC(=O)[C@H](Cc1ccccc1)NC(=O)[C@@H](NC(=O)CNC(=O)[C@H](CCC(N)=O)NC(=O)[C@H](CO)NC(=O)[C@@H](N)Cc1c[nH]cn1)[C@@H](C)O)[C@@H](C)O)C(=O)N[C@@H](CCCNC(=N)N)C(=O)N[C@@H](CCCNC(=N)N)C(=O)N[C@@H](C)C(=O)N[C@@H](CCC(N)=O)C(=O)N[C@@H](CC(=O)O)C(=O)N[C@@H](Cc1ccccc1)C(=O)N[C@H](C(=O)N[C@@H](CCCCNC(=O)CC[C@H](NC(=O)CC[C@H](NC(=O)CC[C@H](NC(=O)CCCCCCCCCCCCCCCCC(=O)O)C(=O)O)C(=O)O)C(=O)O)C(=O)N[C@@H](Cc1c[nH]c2ccccc12)C(=O)N[C@@H](CC(C)C)C(=O)N[C@@H](CC(C)C)C(=O)N[C@@H](CO)C(=O)N[C@H](C(=O)O)[C@@H](C)O)C(C)C [Example 29, N^ε24-[(4S)-4-carboxy-4-[[(4S)-4-carboxy-4-[[(4S)-4-carboxy-4-(17-carboxyheptadecanoylamino)butanoyl]amino]butanoyl]amino]butanoyl]-[Arg^12,Leu^16,Lys^24,Leu^27,Ser^28]-Glucagon] (H-HSQGTFTSDYSRYLDLRRAQDFVK([γGlu-γGlu-γGlu-C18 diacid])WLLST-OH) | 2.8 | 1.32
CC(C)C[C@H](NC(=O)[C@H](Cc1c[nH]c2ccccc12)NC(=O)[C@H](CCCCNC(=O)CC[C@H](NC(=O)CC[C@H](NC(=O)COCCOCCNC(=O)COCCOCCNC(=O)CC[C@H](NC(=O)CCCCCCCCCCCCCCCCC(=O)O)C(=O)O)C(=O)O)C(=O)O)NC(=O)[C@@H](NC(=O)[C@H](Cc1ccccc1)NC(=O)[C@H](CC(=O)O)NC(=O)[C@H](CCC(N)=O)NC(=O)[C@H](C)NC(=O)[C@H](CCCNC(=N)N)NC(=O)[C@H](CCCNC(=N)N)NC(=O)[C@@H](NC(=O)[C@H](CC(=O)O)NC(=O)[C@H](CC(C)C)NC(=O)[C@H](Cc1ccc(O)cc1)NC(=O)[C@H](CCCCN)NC(=O)[C@H](CO)NC(=O)[C@H](Cc1ccc(O)cc1)NC(=O)[C@H](CC(=O)O)NC(=O)[C@H](CO)NC(=O)[C@@H](NC(=O)[C@H](Cc1ccccc1)NC(=O)[C@@H](NC(=O)CNC(=O)[C@H](CCC(N)=O)NC(=O)[C@H](CO)NC(=O)[C@@H](N)Cc1c[nH]cn1)[C@@H](C)O)[C@@H](C)O)[C@@H](C)O)C(C)C)C(=O)N[C@@H](CC(C)C)C(=O)N[C@@H](CO)C(=O)N[C@H](C(N)=O)[C@@H](C)O [Example 39, N^ε24-[(4S)-4-carboxy-4-[[(4S)-4-carboxy-4-[[2-[2-[2-[[2-[2-[2-[[(4S)-4-carboxy-4-(17-carboxyheptadecanoylamino)butanoyl]amino]ethoxy]ethoxy]acetyl]amino]ethoxy]ethoxy]acetyl]amino]butanoyl]amino]butanoyl]-[Thr16,Lys24,Leu27,Ser28]-Glucagon amide] | 7.8 | 0.039
